According to patent US11518758B2, “Heteroarylaminopyrimidine amide autophagy inhibitors and methods of use thereof” (Deciphera Pharmaceuticals, LLC, priority 2019, dated 2022):

Key:
ULK1 kinase = biological target: T1, ULK1 kinase (Homo sapiens, UniProt O75385); test: Biochemical assay for ULK1.2 (coupled pyruvate kinase/lactate dehydrogenase assay); conditions: 19 nM ULK1 (Eurofins), myelin basic protein, 1 mM ATP
T1 construct: purchased Eurofins 14-959
T1 sequence (O75385 with tags, fused parts or gaps): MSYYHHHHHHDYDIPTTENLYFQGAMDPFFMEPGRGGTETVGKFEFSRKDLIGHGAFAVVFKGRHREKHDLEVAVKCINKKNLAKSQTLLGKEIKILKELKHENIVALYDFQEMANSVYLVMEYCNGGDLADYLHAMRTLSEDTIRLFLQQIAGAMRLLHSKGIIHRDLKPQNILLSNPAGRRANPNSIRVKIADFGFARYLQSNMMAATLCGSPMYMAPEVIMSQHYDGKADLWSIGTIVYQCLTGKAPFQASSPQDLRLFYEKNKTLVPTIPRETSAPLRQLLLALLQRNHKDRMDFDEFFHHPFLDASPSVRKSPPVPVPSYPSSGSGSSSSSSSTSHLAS
Experimental: Example 174. Biochemical Assay for ULK1.2
Activity of ULK1 kinase was determined spectroscopically using a coupled pyruvate kinase/lactate dehydrogenase assay that continuously monitors the ATP hydrolysis-dependent oxidation of NADH (e.g., Schindler et al. Science (2000) 289: 1938-1942). Assays were conducted in 384-well plates (100 uL final volume) using 19 nM ULK1 (Eurofins CAT #14-959), 0.25 mg/mL myelin basic protein, 1.5 units pyruvate kinase, 2.1 units lactate dehydrogenase, 1 mM phosphoenol pyruvate, 0.28 mM NADH and 1 mM ATP in assay buffer (100 mM Tris, pH 7.5, 15 mM MgCl2, 0.5 mM DTT, 0.1% octyl-glucoside, 0.002% (w/v) BSA, and 0.002% Triton X-100). Inhibition of ULK1 was measured by adding serial diluted test compound (final assay concentration of 1% DMSO). A decrease in absorption at 340 nm was monitored continuously for 6 hours at 30° C. on a multi-mode microplate reader (BioTek). The reaction rate was calculated using the 2-3 h time frame. The reaction rate at each concentration of compound was converted to percent inhibition using controls (i.e. reaction with no test compound and reaction with a known inhibitor) and IC50 values were calculated by fitting a four-parameter sigmoidal curve to the data using Prism (GraphPad software).

LRRK2 kinase = biological target: T2, LRRK2 kinase (Homo sapiens, UniProt Q5S007); test: Biochemical assay for LRRK2 (coupled pyruvate kinase/lactate dehydrogenase assay); conditions: 26.4 nM LRRK2 (residues 970-2528), 0.1 mM peptide substrate, 1 mM ATP
T2 construct: purchased Thermo Fisher
Experimental: Example 182. Biochemical Assay for LRRK2 (SEQ. ID NO. 4)
Activity of LRRK2 kinase was determined spectroscopically using a coupled pyruvate kinase/lactate dehydrogenase assay that continuously monitors the ATP hydrolysis-dependent oxidation of NADH (e.g., Schindler et al. Science (2000) 289: 1938-1942). Assays were conducted in 384-well plates (100 uL final volume) using 26.4 nM LRRK2 (Thermo Fisher), 0.1 mM peptide substrate (RLGRDKYKTLRQIRQ (SEQ ID NO: 6)), 1.5 units pyruvate kinase, 2.1 units lactate dehydrogenase, 1 mM phosphoenol pyruvate, 0.28 mM NADH and 1 mM ATP in assay buffer (100 mM Tris, pH 7.5, 15 mM MgCl2, 0.5 mM DTT, 0.004% (w/v) BSA, and 0.004% Triton X-100). Inhibition of LRRK2 was measured by adding serial diluted test compound (final assay concentration of 1% DMSO). A decrease in absorption at 340 nm was monitored continuously for 6 hours at 30° C. on a multi-mode microplate reader (BioTek). The reaction rate was calculated using the 2-3 h time frame. The reaction rate at each concentration of compound was converted to percent inhibition using controls (i.e. reaction with no test compound and reaction with a known inhibitor) and IC50 values were calculated using software routines in Prism (GraphPad software).

[1] = test system: phospho-Serine 318 ATG13 (pATG13), ULK kinase substrate, in A549 (KRAS mutant) cells; test: pATG13 levels of mutant KRas A549 cells after treatment with ULK inhibitors in combination with trametinib (ELISA); assay type: cell-based, human; conditions: with 250 nM trametinib
Experimental: Example 177. Cellular Inhibition of ULK Kinase Substrate ATG13 Protein pATG13 Levels of Mutant KRas A549 Cells after Treatment with ULK Inhibitors in Combination with Trametinib
A549 (KRAS mutant) human lung cancer cells (6,000 cells/well) were added to a 384-well tissue-culture treated plate in 50 μL of pre-warmed DMEM medium supplemented with 10% characterized fetal bovine serum (Invitrogen, Carlsbad, Calif.), 100 units/mL penicillin G, and 100 μg/mL streptomycin and allowed to grow overnight at 37° C., 5% CO2, and 95% humidity. The following day, 10 μL of media containing trametinib or DMSO as a control was added to wells. The final concentration of trametinib in wells was 250 nM. A dose response of a test compound (0.6 μL per well) was added. DMSO (0.6 μL) was added to control wells. The plate was briefly shaken to mix wells and then incubated at 37° C. overnight. The next day, the media was aspirated and cells were washed with Dulbecco's Phosphate Buffered Saline (Gibco). Cells were lysed using MPER lysis buffer (Pierce, Rockford, Ill.) containing Halt Phosphatase and Protease Inhibitors (Pierce, Rockford, Ill.) and Phosphatase inhibitor cocktail 2 (Sigma, St. Louis, Mo.) at 4° C. for 10 minutes with shaking.
Cellular levels of phospho-Serine 318 ATG13 (pATG13) were measured via an ELISA method. Total ATG13 Antibody (Cell Signaling Cat #13273) was used to coat the wells. The plate was incubated at 4° C. overnight and washed with ELISA wash buffer (Biolegend Cat #421601). The wells were then blocked with assay diluent (Biolegend Cat #421203) for 1 hour at room temperature. Plate wells were washed with ELISA wash buffer. Cell lysate was added to wells and incubated at room temperature for 2 hours. Plate wells were washed with ELISA wash buffer. Biotinylated pS318-ATG13 antibody (Rockland Immunochemicals Cat #600-401-C49) was diluted in assay diluent and added to each well and incubated at room temperature for 1 hour. Plate wells were washed with ELISA wash buffer. Streptavidin linked to horseradish peroxidase (Thermo Fisher Cat #21140) was diluted in assay diluent and added to each well and incubated at room temperature for 1 hour. Plate wells were washed with ELISA wash buffer. High sensitivity TMB substrate (Biolegend Cat #421101) was added to each well and incubated at room temperature for 20 minutes. The reaction was stopped with 2N Sulfuric Acid. The plate was analyzed at on a plate reader measuring absorbance at 450 nm and 540 nm (background). Signal was calculated by first subtracting the background absorbance at 540 nm from the absorbance at 450 nm for each well. Next, the background corrected absorbance at 450 nm from blank wells was subtracted from test wells. Data was compared to control wells to determine % ATG13 phosphorylation. GraphPad Prism was used to calculate IC50 values.

T2 sequence (Q5S007 with tags, fused parts or gaps): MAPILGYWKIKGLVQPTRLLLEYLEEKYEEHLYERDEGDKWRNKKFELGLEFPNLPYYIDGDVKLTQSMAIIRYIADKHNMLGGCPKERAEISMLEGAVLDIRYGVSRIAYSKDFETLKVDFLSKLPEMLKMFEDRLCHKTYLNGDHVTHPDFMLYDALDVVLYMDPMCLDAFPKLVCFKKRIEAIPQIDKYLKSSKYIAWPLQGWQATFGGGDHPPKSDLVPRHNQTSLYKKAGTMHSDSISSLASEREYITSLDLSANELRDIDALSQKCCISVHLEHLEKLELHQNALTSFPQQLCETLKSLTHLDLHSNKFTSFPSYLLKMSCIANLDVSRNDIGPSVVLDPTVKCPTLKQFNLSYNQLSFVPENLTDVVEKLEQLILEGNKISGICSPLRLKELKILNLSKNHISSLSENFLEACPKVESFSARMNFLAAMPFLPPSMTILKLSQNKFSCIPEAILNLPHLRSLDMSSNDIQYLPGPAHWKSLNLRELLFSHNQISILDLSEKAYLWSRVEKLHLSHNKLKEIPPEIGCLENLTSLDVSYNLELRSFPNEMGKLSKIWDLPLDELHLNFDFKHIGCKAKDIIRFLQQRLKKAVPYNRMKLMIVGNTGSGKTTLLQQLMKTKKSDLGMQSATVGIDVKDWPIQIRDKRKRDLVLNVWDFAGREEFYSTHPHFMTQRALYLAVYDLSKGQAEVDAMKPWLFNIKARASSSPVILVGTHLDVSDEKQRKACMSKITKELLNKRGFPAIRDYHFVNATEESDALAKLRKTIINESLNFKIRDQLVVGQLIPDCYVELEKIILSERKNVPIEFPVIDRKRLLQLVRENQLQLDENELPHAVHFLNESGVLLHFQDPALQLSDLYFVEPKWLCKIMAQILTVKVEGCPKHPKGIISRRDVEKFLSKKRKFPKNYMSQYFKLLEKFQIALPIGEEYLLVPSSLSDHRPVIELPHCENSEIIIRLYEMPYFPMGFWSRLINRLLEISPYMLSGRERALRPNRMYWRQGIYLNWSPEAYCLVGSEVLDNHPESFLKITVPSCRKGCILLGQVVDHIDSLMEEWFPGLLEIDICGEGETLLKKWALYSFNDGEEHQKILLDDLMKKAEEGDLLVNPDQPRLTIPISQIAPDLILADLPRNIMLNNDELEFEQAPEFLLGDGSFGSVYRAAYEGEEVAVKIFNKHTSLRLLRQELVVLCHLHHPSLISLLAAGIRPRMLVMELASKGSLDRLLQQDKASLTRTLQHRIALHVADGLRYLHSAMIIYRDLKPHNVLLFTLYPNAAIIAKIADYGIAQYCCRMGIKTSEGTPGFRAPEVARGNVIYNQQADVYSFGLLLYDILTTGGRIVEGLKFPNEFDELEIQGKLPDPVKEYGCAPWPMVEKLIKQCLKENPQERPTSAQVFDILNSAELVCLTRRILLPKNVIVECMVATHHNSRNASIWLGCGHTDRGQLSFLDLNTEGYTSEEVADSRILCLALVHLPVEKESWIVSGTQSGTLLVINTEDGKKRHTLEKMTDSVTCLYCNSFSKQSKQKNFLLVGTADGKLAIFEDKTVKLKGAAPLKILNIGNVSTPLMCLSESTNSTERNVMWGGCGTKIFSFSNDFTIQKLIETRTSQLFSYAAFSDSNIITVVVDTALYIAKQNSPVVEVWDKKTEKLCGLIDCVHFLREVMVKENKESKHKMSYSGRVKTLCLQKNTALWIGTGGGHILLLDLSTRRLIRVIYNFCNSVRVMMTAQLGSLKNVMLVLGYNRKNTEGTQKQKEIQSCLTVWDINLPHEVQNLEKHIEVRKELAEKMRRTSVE

IC50 (ULK1 kinase)	IC50 (LRRK2 kinase)	IC50 [1]	SMILES
100 to 500 nM	300 to 600 nM	–	Cc1nn(C2CCN(C3COC3)CC2)cc1Nc1ncc(C(F)(F)F)c(NCCCN2CCCCC2=O)n1 [Example 33]
25 to 100 nM	–	100 to 300 nM	Cc1nn(CCCN2CCCC2)cc1Nc1ncc(C(F)(F)F)c(NCCCN2CCCCC2=O)n1 [Example 20]
100 to 500 nM	> 600 nM	–	Cc1nn(CCN2CCCC2)cc1Nc1ncc(C(F)(F)F)c(NCCCN2CCCCC2=O)n1 [Example 45]
100 to 500 nM	100 to 300 nM	–	Cc1nn(CCN2CCOCC2)cc1Nc1ncc(C(F)(F)F)c(NCCCN2CCCCCC2=O)n1 [Example 98]
25 to 100 nM	–	100 to 300 nM	Cc1nn(C2CCN(C)CC2)cc1Nc1ncc(C(F)(F)F)c(NCCCN2CCN(C)C2=O)n1 [Example 152]
> 500 nM	> 600 nM	–	Cc1nn(CCN2CCOCC2)cc1Nc1ncc(C(F)(F)F)c(NCCCN2CCCCC2=O)n1 [Example 29]
25 to 100 nM	–	300 to 600 nM	CC(C)CN1CC(n2cc(Nc3ncc(C(F)(F)F)c(NCCCN4CCCCC4=O)n3)cn2)C1 [Example 12]
25 to 100 nM	> 600 nM	–	Cc1nn(C2CN(CC(C)C)C2)cc1Nc1ncc(C(F)(F)F)c(NCCCN2CCCCC2=O)n1 [Example 23]
1 to 25 nM	–	100 to 300 nM	[2H]C([2H])([2H])N1CCC(n2cc(Nc3ncc(C(F)(F)F)c(NCCCN4CCCCC4=O)n3)c(C)n2)CC1 [Example 31]
100 to 500 nM	> 600 nM	–	CCN1CC[C@H](n2cc(Nc3ncc(C(F)(F)F)c(NCCCN4CCCC4=O)n3)c(C)n2)C1 [Example 168]
100 to 500 nM	300 to 600 nM	–	CC(C)CN1CC(n2cc(Nc3ncc(C(F)(F)F)c(NCCCN4CCCC4=O)n3)cn2)C1 [Example 170]
1 to 25 nM	–	10 to 100 nM	CCN1CCC(n2cc(Nc3ncc(C(F)(F)F)c(NCCCN4CCCCCC4=O)n3)c(C)n2)CC1 [Example 90, 1-(3-((2-((1-(1-ethylpiperidin-4-yl)-3-methyl-1H-pyrazol-4-yl)amino)-5-(trifluoromethyl)pyrimidin-4-yl)amino)propyl)azepan-2-one]
> 500 nM	> 600 nM	–	Cc1nn(C2CN(CC(C)C)C2)cc1Nc1ncc(Cl)c(NCCCN2CCCCC2=O)n1 [Example 38]
1 to 25 nM	–	10 to 100 nM	CCC(C)N1CCC(n2cc(Nc3ncc(C(F)(F)F)c(NCCCN4CCCCCC4=O)n3)c(C)n2)CC1 (stereo not shown) [Example 94]

The remaining lines, values behind:

SMILES	IC50 (ULK1 kinase)	IC50 (LRRK2 kinase)	IC50 [1]
C[C@@H](CCNc1nc(Nc2cnn(C3CCN(C)CC3)c2)ncc1Cl)N1CCCC1=O [Example 157]	> 500 nM	> 600 nM	–
CC1(C)CCN(CCCNc2nc(Nc3cnn(C4CCN(C5CC5)CC4)c3)ncc2Br)C1=O [Example 153]	100 to 500 nM	300 to 600 nM	–
CN1CCC(n2cc(Nc3ncc(C4CC4)c(NCCCN4CCCC4=O)n3)cn2)CC1 [Example 84]	100 to 500 nM	> 600 nM	–
CCc1nn(C2CCNCC2)cc1Nc1ncc(Cl)c(NCCCN2CCCCC2=O)n1 [Example 39]	100 to 500 nM	> 600 nM	–
Cc1nn(CCCN2CCOCC2)cc1Nc1ncc(Cl)c(NCCCN2CCOCCC2=O)n1 [Example 135]	> 500 nM	> 600 nM	–
Cc1nn(C2CCNCC2)cc1Nc1ncc(I)c(NCCCN2CCCCC2=O)n1 [Example 48]	1 to 25 nM	–	> 600 nM
Cc1nn(C2CCN(C)CC2)cc1Nc1ncc(Cl)c(NCCCN2CCOCCC2=O)n1 [Example 132]	100 to 500 nM	> 600 nM	–
CC(C)CN1CC(n2cc(Nc3ncc(Br)c(NCCCN4CCCC4=O)n3)cn2)C1 [Example 165]	100 to 500 nM	300 to 600 nM	–
Cc1nn(C2CCN(C)CC2)cc1Nc1ncc(Cl)c(NCCCN2CCCCC2=O)n1 [Example 56]	100 to 500 nM	> 600 nM	–
O=C1CCCCN1CCCNc1nc(Nc2cnn(C3CCNCC3)c2)ncc1Br [Example 9]	1 to 25 nM	–	> 600 nM
C[C@@H](CCNc1nc(Nc2cnn(C3CCN(C4CC4)CC3)c2)ncc1Cl)N1CCCC1=O [Example 156]	> 500 nM	300 to 600 nM	–
CC(C)CN1CC(n2cc(Nc3ncc(Cl)c(NCCCN4CCCC4=O)n3)cn2)C1 [Example 159]	> 500 nM	> 600 nM	–
Cc1nn(C2CCN(C(C)C)CC2)cc1Nc1ncc(Cl)c(NCCCN2CCCOCC2=O)n1 [Example 110]	> 500 nM	100 to 300 nM	–
O=C1CCCCN1CCCNc1nc(Nc2cnn(C3CCN(CC4CC4)CC3)c2)ncc1Cl [Example 3]	1 to 25 nM	–	10 to 100 nM
Cc1nn(CCN2CCCC2)cc1Nc1ncc(Br)c(NCCCN2CCCCC2=O)n1 [Example 62]	100 to 500 nM	> 600 nM	–
CCN1CCC(n2cc(Nc3ncc(Cl)c(NCCCN4CCCCC4=O)n3)c(C)n2)CC1 [Example 58]	100 to 500 nM	–	300 to 600 nM
Cc1nn(C2CCN(C)CC2)cc1Nc1ncc(C2CC2)c(NCCCN2CCCOCC2=O)n1 [Example 111]	> 500 nM	> 600 nM	–
[2H]C([2H])([2H])C([2H])(N1CCC(n2cc(Nc3ncc(C(F)(F)F)c(NCCCN4CCCCC4=O)n3)cn2)CC1)C([2H])([2H])[2H] [Example 13]	1 to 25 nM	–	100 to 300 nM
Cc1nn([C@@H]2CCNC2)cc1Nc1ncc(Br)c(NCCCN2CCCC2=O)n1 [Example 164]	100 to 500 nM	300 to 600 nM	–
CC1CCC(=O)N1CCCNc1nc(Nc2cnn(C3CCN(C4CC4)CC3)c2)ncc1Cl (stereo not shown) [Example 150]	100 to 500 nM	100 to 300 nM	–
CC(C)N1CCC(n2cc(Nc3ncc(C(F)(F)F)c(NCCCN4CCOCC4=O)n3)cn2)CC1 [Example 74]	25 to 100 nM	–	> 600 nM
